Results from ChEMBL document CHEMBL3525970, “Glutaredoxin and thioredoxin can be involved in producing the pharmacologically active metabolite of a thienopyridine antiplatelet agent, prasugrel” (Drug Metab Dispos, 2011).

Columns and labels:
Liver microsome = assay: Drug metabolism in human liver microsomes treated with R-133490 at 1 uM after 1 to 10 mins by LC-MS/MS analysis in presence of human liver cytosol and glutathione; format: ADME
[1] = Drug metabolism in potassium phosphate buffer treated with R-133490 at 1 uM after 1 to 10 mins by LC-MS/MS analysis in presence of human liver cytosol and glutathione; format: physicochemical
[2] = Drug metabolism in potassium phosphate buffer treated with R-133490 at 1 uM after 1 to 10 mins by LC-MS/MS analysis; format: physicochemical
Liver cytosol = assay: Drug metabolism in human liver cytosol treated with R-133490 at […] 0.05 mM after 5 mins by HPLC analysis in presence of dithiothreitol and 67 ug/ml anti-human thioredoxin antibody; format: ADME; details: 50 µM

Drug metabolism (Liver microsome): metabolite_detected | Drug metabolism [1]: metabolite_detected | Drug metabolism [2]: metabolite_detected | Drug metabolism (Liver cytosol): metabolite_detected
Structure (SMILES): O=C(O)/C=C1/CN(C(C(=O)C2CC2)c2ccccc2F)CCC1S (centres undefined) [R-138727]
